Assay results from US20230322846A9, “NEUROACTIVE STEROIDS AND THEIR METHODS OF USE” (SAGE THERAPEUTICS, INC., priority 2018, published 2023).

The molecules below were run against [35S]-TBPS binding, rat brain cortical membranes (assay: Steroid inhibition of [35S]-TBPS binding). Conditions: 3 nM [35S]-TBPS, in the presence of 5 mM GABA.
Experimental: [^35S]-t-Butylbicyclophosphorothionate (TBPS) binding assays using rat brain cortical membranes in the presence of 5 mM GABA has been described (Gee et al, J. Pharmacol. Exp. Ther. 1987, 241, 346-353; Hawkinson et al, Mol. Pharmacol. 1994, 46, 977-985; Lewin, A. H et al., Mol. Pharmacol. 1989, 35, 189-194).
Briefly, cortices are rapidly removed following decapitation of carbon dioxide-anesthetized Sprague-Dawley rats (200-250 g). The cortices are homogenized in 10 volumes of ice-cold 0.32 M sucrose using a glass/teflon homogenizer and centrifuged at 1500×g for 10 min at 4° C. The resultant supernatants are centrifuged at 10,000×g for 20 min at 4° C. to obtain the P2 pellets. The P2 pellets are resuspended in 200 mM NaCl/50 mM Na—K phosphate pH 7.4 buffer and centrifuged at 10,000×g for 10 min at 4° C. This washing procedure is repeated twice and the pellets are resuspended in 10 volumes of buffer. Aliquots ([…]) of the membrane suspensions are incubated with 3 nM [^35S]-TBPS and […] aliquots of test drug dissolved in dimethyl sulfoxide (DMSO) (final 0.5%) in the presence of 5 mM GABA. The incubation is brought to a final volume of 1.0 mL with buffer. Nonspecific binding is determined in the presence of […] and ranged from 15 to 25%. Following a 90 min incubation at room temp, the assays are terminated by filtration through glass fiber filters (Schleicher and Schuell No. 32) using a cell harvester (Brandel) and rinsed three times with ice-cold buffer. Filter bound radioactivity is measured by liquid scintillation spectrometry. Non-linear curve fitting of the overall data for each drug averaged for each concentration is done using Prism (GraphPad). […] The concentration of test compound producing 50% inhibition (IC50) of specific binding and the maximal extent of inhibition (Imax) are determined for the individual experiments with the same model used for the overall data and then the means±SEM.s of the individual experiments are calculated.
Various compounds are or can be screened to determine their potential as modulators of [^35S]-TBPS binding in vitro. These assays are or can be performed in accordance with the above
Molecule `COc1cncc(C[C@@H](C)[C@H]2CC[C@H]3[C@@H]4CC[C@@H]5C[C@](C)(O)CC[C@@H]5[C@H]4CC[C@]23C)c1` [Example 433] has an IC50 of under 100 nM. Molecule `CCC[C@@]1(O)CC[C@@]2(C)[C@H](CC[C@@H]3[C@@H]2[C@@H](O)C[C@]2(C)[C@@H]([C@H](C)Cn4cc(C#N)cn4)CC[C@@H]32)C1` [Example 310, 1-((S)-2-((3R,5R,8S,9S,10S,11S,13S,14S,17R)-3,11-dihydroxy-10,13-dimethyl-3-propylhexadecahydro-1H-cyclopenta[a]phenanthren-17-yl)propyl)-1H-pyrazole-4-carbonitrile] has an IC50 of 100 to 1000 nM. For `COC[C@@]1(O)CC[C@H]2[C@H](CC[C@@H]3[C@@H]2CC[C@]2(C)[C@@H](CCn4ccnn4)CC[C@@H]32)C1` [Example 50, (3R,5R,8R,9R,10S,13R,14S,17R)-17-(2-(1H-1,2,3-triazol-1-yl)ethyl)-3-(methoxymethyl)-13-methylhexadecahydro-1H-cyclopenta[a]phenanthren-3-ol], the IC50 was under 100 nM. `CCOC[C@@]1(O)CC[C@H]2[C@H](CC[C@@H]3[C@@H]2CC[C@]2(C)[C@@H]([C@@H](C)NS(=O)(=O)c4cccc(C#N)n4)CC[C@@H]32)C1` [Example 71] gave an IC50 of 100 to 1000 nM. For `Cc1cncc(C[C@H](C)[C@H]2CC[C@H]3[C@@H]4CC[C@@H]5C[C@](C)(O)CC[C@@H]5[C@H]4CC[C@]23C)n1` [Example 441], the IC50 was under 100 nM. `Cc1cnc(C[C@@H](C)[C@H]2CC[C@H]3[C@@H]4CC[C@@H]5C[C@](C)(O)CC[C@@H]5[C@H]4CC[C@]23C)s1` [Example 431] was tested, and the IC50 was 100 to 1000 nM. `CCOC[C@@]1(O)CC[C@H]2[C@H](CC[C@@H]3[C@@H]2CC[C@]2(C)[C@@H]([C@H](C)n4ncc(C#N)c4N)CC[C@@H]32)C1` [Example 161, 5-amino-1-((S)-1-((3R,5R,8R,9R,10S,13S,14S,17S)-3-(ethoxymethyl)-3-hydroxy-13-methylhexadecahydro-1H-cyclopenta[a]phenanthren-17-yl)ethyl)-1H-pyrazole-4-carbonitrile] showed an IC50 of 1000 to 10000 nM. `CCOC[C@@]1(O)CC[C@H]2[C@H](CC[C@@H]3[C@@H]2CC[C@]2(C)[C@@H]([C@H](C)Cn4ccnn4)CC[C@@H]32)C1` [Example 267, (3R,5R,8R,9R,10S,13S,14S,17R)-17-((S)-1-(1H-1,2,3-triazol-1-yl)propan-2-yl)-3-(ethoxymethyl)-13-methylhexadecahydro-11H-cyclopenta[a]phenanthren-3-ol] gave an IC50 of under 100 nM. In the case of `C[C@H](NC(=O)c1ccc(F)cc1)[C@H]1CC[C@H]2[C@@H]3CC[C@@H]4C[C@](C)(O)CC[C@@H]4[C@H]3CC[C@]12C` [Example 117], the IC50 is reported as 1000 to 10000 nM. `COC[C@@]1(O)CC[C@@]2(C)[C@H](CC[C@@H]3[C@@H]2[C@H](O)C[C@]2(C)[C@@H]([C@H](C)Cn4cc(C#N)cn4)CC[C@@H]32)C1` [Example 282, 1-((S)-2-((3R,5R,8S,9S,10S,11R,13S,14S,17R)-3,11-dihydroxy-3-(methoxymethyl)-10,13-dimethylhexadecahydro-1H-cyclopenta[a]phenanthren-17-yl)propyl)-1H-pyrazole-4-carbonitrile] showed an IC50 of 100 to 1000 nM. For `COc1ccc(C(=O)N[C@H](C)[C@H]2CC[C@H]3[C@@H]4CC[C@@H]5C[C@](C)(O)CC[C@@H]5[C@H]4CC[C@]23C)cc1` [Example 106], the IC50 was 100 to 1000 nM. `C[C@@]1(O)CC[C@H]2[C@H](CC[C@@H]3[C@@H]2CC[C@]2(C)[C@@H]([C@@H](C#N)Cn4cc(C#N)cn4)CC[C@@H]32)C1` [Example 356, 1-((R)-2-cyano-2-((3R,5R,8R,9R,10S,13S,14S,17R)-3-hydroxy-3,13-dimethylhexadecahydro-1H-cyclopenta[a]phenanthren-17-yl)ethyl)-1H-pyrazole-4-carbonitrile] showed an IC50 of under 100 nM. `CCC[C@@]1(O)CC[C@H]2[C@H](CC[C@@H]3[C@@H]2CC[C@]2(C)[C@@H]([C@@H](C)Cn4nnnc4C)CC[C@@H]32)C1` [Example 324, (3R,5R,8R,9R,10S,13S,14S,17R)-13-methyl-17-(1-(5-methyl-1H-tetrazol-1-yl)propan-2-yl)-3-propylhexadecahydro-1H-cyclopenta[a]phenanthren-3-ol] showed an IC50 of under 100 nM. For `CCC[C@@]1(O)CC[C@H]2[C@H](CC[C@@H]3[C@@H]2CC[C@]2(C)[C@@H]([C@H](C)Cc4cnc(C)cn4)CC[C@@H]32)C1` [Example 418], the IC50 was 1000 to 10000 nM. `COC[C@@]1(O)CC[C@H]2[C@H](CC[C@@H]3[C@@H]2CC[C@]2(C)[C@@H]([C@H](C)Cc4nc(C)ccc4Cl)CC[C@@H]32)C1` [Example 425] showed an IC50 of 1000 to 10000 nM. Work on `COC[C@@]1(O)CC[C@H]2[C@H](CC[C@@H]3[C@@H]2CC[C@]2(C)[C@@H]([C@H](C)Cc4ccc(C(F)(F)F)nc4)CC[C@@H]32)C1` [Example 421] yielded an IC50 of 100 to 1000 nM. `C[C@@H](NC(=O)c1ccc(F)cn1)[C@H]1CC[C@H]2[C@@H]3CC[C@@H]4C[C@](C)(O)CC[C@@H]4[C@H]3CC[C@]12C` [Example 127] showed an IC50 of 100 to 1000 nM. In the case of `C[C@@H]1CCCC(=O)N1C[C@H]1CC[C@H]2[C@@H]3CC[C@@H]4C[C@](C)(O)CC[C@@H]4[C@H]3CC[C@]12C` [Example 7, (R)-1-(((3R,5R,8R,9R,10S,13S,14S,17S)-3-hydroxy-3,13-dimethylhexadecahydro-1H-cyclopenta[a]phenanthren-17-yl)methyl)-6-methylpiperidin-2-one], the IC50 is reported as 1000 to 10000 nM. In the case of `CC[C@@H](Nc1cccc(C#N)c1)[C@H]1CC[C@H]2[C@@H]3CC[C@@H]4C[C@@](O)(COC)CC[C@@H]4[C@H]3CC[C@]12C` [Example 497, 3-(((R)-1-((3R,5R,8R,9R,10S,13S,14S,17S)-3-hydroxy-3-(methoxymethyl)-13-methylhexadecahydro-1H-cyclopenta[a]phenanthren-17-yl)propyl)amino)benzonitrile], the IC50 is reported as 100 to 1000 nM. `COC[C@@]1(O)CC[C@@]2(C)[C@H](CC[C@@H]3[C@@H]2[C@@H](O)C[C@]2(C)[C@@H]([C@@H](C)Cn4cc(C#N)cn4)CC[C@@H]32)C1` [Example 327, 1-((R)-2-((3R,5R,8S,9S,10S,11S,13S,14S,17R)-3,11-dihydroxy-3-(methoxymethyl)-10,13-dimethylhexadecahydro-1H-cyclopenta[a]phenanthren-17-yl)propyl)-1H-pyrazole-4-carbonitrile] showed an IC50 of 100 to 1000 nM. `CCOC[C@@]1(O)CC[C@H]2[C@H](CC[C@@H]3[C@@H]2CC[C@]2(C)[C@@H]([C@@H](C)NS(=O)(=O)c4cccc(C#N)c4)CC[C@@H]32)C1` [Example 69] gave an IC50 of under 100 nM. `CCOC[C@@]1(O)CC[C@H]2[C@H](CC[C@@H]3[C@@H]2CC[C@]2(C)[C@@H]([C@@H](C)Cc4ccc(C)nc4C#N)CC[C@@H]32)C1` [Example 414] showed an IC50 of under 100 nM. Molecule `COC[C@@]1(O)CC[C@H]2[C@H](CC[C@@H]3[C@@H]2CC[C@@]2(C)[C@H]3CC[C@]2(O)[C@H](C)Cn2cc(C#N)cn2)C1` [Example 353] has an IC50 of 1000 to 10000 nM.
